Measurements published in US20090136472A1, “Use of thiazole derivatives and analogues in disorders caused by free fatty acids” (priority 2005, published 2009).

Legend:
MDA-MB-231 cells = experiment: Test A cell proliferation assay (FFA/linolenic acid-stimulated, cell cycle analysis by flow cytometry); assay type: cell-based, human; conditions: 24 hours; for inhibition at 10 µM: Homo sapiens, at a concentration of 10 μM, cells in S-phase, read-out: percentage antagonist activity (inhibition of FFA induced cell proliferation); for inhibition at 10 µM / antagonism of free fatty acid stimulated cell proliferation: linolenic acid-stimulated MDA-MB-231 cells; for antagonism of free fatty acid stimulated cell proliferation: S-phase by propidium iodine staining
Protocol: Cytomics™ FC500 Flow Cytometer with CXP software (Beckman Coulter) MDA-MB-231 cells MDA-MB-231 cells were cultured in the propagation media D-MEM+1000 mg/L Glucose+GlutaMAX™ 1+Pyruvate supplemented with 10% V/V Foetal Bovine Serum and PEST (100 U/ml penicillin, 100 μg/mL streptomycin). Cells were seeded in 6 well plates to a density of 300000 cells/well in propagation media. After 24 hours, media was replaced with serum free D-MEM media.
Linolenic acid was diluted in DMSO to a concentration of 100 mM and added to the culture media to a final concentration of 100 μM.
Compounds were as dissolved in DMSO to a concentrations of 10 mM (Compounds of Examples 95 and 6 (Compound X and Compound Y, respectively)) and 40 mM (Compound of Example 4 (Compound Z)) and added to the culture media to a final concentration of 10 μM (X and Y) and 40 μM (Z) respectively.
After 24 hours in serum free media DMEM, linolenic acid (to a final concentration of […]) and compounds to be screened for activity were added to a final concentration of 10 μM (Compounds X and Y) and 40 μM (Compound Z) respectively. Final DMSO concentration was kept at 0.2% in all wells. After 24 hours of stimulation, cells were harvested and propidium iodine stained using a CyStain PI absolute T Kit according to manufacturer's recommendations. Cells were subsequently analyzed using a Cytomics™ FC500 Flow Cytometer with CXP software (Beckman Coulter) for cell cycle distribution. Cells were incubated with or without linolenic acid (LA) and the Compounds X, Y and Z for 24 hours at indicated concentrations. Cells in S-phase from untreated sample were set to 100% in each experiment.

Ob/Ob mice = experiment: Test B insulin measurement study in diabetic Ob/Ob mice; assay type: in vivo; conditions: 1 mg/kg intraperitoneally once daily for 2 weeks
Protocol: Ultra sensitive rat insulin ELISA kit (Crystal Chen inc) according to manufacturer's recommendations.
Serum insulin measurements on 4 hour fasted 8-9 week old Ob/Ob mice (Taconic) were performed. Mice were distributed to a vehicle control group (VC) or a Compound Z treatment group, so that mean s-insulin was equal between the groups. 1 mg/kg bodyweight of Compound Z in PBS/1% v/v DMSO and VC groups were injected intraperitoneally once daily for 2 weeks, after which 4 hour fasted serum insulin levels were measured as described above.

Structure (SMILES)	effect on the basal proliferation of MDA-MB-231 cells (MDA-MB-231 cells; Compound X 10 μM without linolenic acid)	inhibition at 10 µM (MDA-MB-231 cells) [%]	antagonism of free fatty acid stimulated cell proliferation (MDA-MB-231 cells)	hyperinsulinemia (4 hour fasted serum insulin level) (Ob/Ob mice)
O=C1NC(=Nc2ccccn2)SC1Cc1ccc(F)cc1 (centres unmarked) [Compound X, 5-(4-Fluorobenzyl)-2-(pyridin-2-ylimino)thiazolidin-4-one]	did not exhibit any detectable effect	70	able to antagonize free fatty acid stimulated cell proliferation	
O=C1NC(=Nc2ccc(Cl)cc2)SC1Cc1cccc(C(F)(F)F)c1 (centres unmarked) [Compound Y, 5-(3-(Trifluoromethyl)benzyl)-2-(4-chlorophenylimino)thiazolidin-4-one]		100	able to antagonize free fatty acid stimulated cell proliferation	
Cc1ccc(N=C2NC(=O)C(Cc3cccc(C(F)(F)F)c3)S2)cc1 (centres unmarked) [Compound Z, 5-(3-(Trifluoromethyl)benzyl)-2-(p-tolylimino)thiazolidin-4-one]		50	able to antagonize free fatty acid stimulated cell proliferation	attenuated hyperinsulinemia
